Results on 19 compounds are retold here after ChEMBL document CHEMBL4311946, “Mechanistic Insight on the Mode of Action of Colletoic Acid” (J Med Chem, 2019).

Data set [1] deals with 11-beta-hydroxysteroid dehydrogenase 1 (Homo sapiens, UniProt P28845, C272S). Description: Inhibition of N-terminal MKHQHQHQHQHQHQQPL-tagged 11beta-HSD1 C272S mutant (unknown origin) expressed in Escherichia coli BL21 (DE3) using cortisol as substrate measured for 1 hr in presence of NADPH by fluorescence assay.
The target in data set [2] is T1, 11-beta-hydroxysteroid dehydrogenase type 2 (Homo sapiens, UniProt P80365).
T1 sequence (P80365 whole entry): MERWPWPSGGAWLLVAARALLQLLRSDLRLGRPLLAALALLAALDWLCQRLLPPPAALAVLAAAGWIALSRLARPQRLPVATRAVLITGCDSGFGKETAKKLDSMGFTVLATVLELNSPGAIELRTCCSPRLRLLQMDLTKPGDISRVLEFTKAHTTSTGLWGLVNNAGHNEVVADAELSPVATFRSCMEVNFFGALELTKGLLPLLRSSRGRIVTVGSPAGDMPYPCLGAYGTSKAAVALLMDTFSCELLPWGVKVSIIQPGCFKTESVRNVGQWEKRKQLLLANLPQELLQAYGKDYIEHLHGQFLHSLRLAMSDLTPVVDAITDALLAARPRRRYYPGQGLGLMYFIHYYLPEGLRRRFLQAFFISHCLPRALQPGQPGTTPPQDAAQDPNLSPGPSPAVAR
Description: Inhibition of 11beta-HSD2 (unknown origin) expressed in HEK293 cells using cortisone as substrate measured after 2 hrs in presence of NAD+ by HTRF assay. The data set is classed as ADME, cell-based. For orientation: Time-resolved FRET reads energy transfer from a long-lived donor to a nearby acceptor.

Data set [3] in a line: Half life in human liver microsomes. In kind it is ADME, Microsome. A general note: Liver microsomes are a subcellular fraction often used to study metabolism.
The nature of data set [4]: Half life in mouse liver microsomes. In kind it is ADME, Microsome.
Data set [5] in a line: Stability in mouse plasma. In kind it is ADME, cell-free.
The nature of data set [6]: Half life in human plasma. In kind it is ADME, cell-free.
Data set [7] can be described thus: Half life in simulated gastric fluid. In kind it is ADME.
In data set [8] the test system is 3T3-L1. Description: Cytotoxicity against mouse 3T3L1 cells measured after 72 hrs by celltiter-glo luminescent cell viability assay. The data set is classed as ADME, cell-based. The conditions noted are these: 3T3-L1, 72 h. A general note: Cellular ATP, detected with luciferase, serves as a proxy for viable cell number.
In data set [9] the test system is 3T3-L1. Description: Inhibition of cell differentiation in mouse 3T3L1 cells assessed as reduction in pre-adipocyte differentiation into matured adipocytes at 50 uM incubated for 48 hrs under induction medium containing dehydrocorticosterone/cortisone followed by shifting to differentiation medium and measured after 7 days by Oil red O staining-based microscopic analysis. In kind it is functional.

The target of data set [10] is T2, Peroxisome proliferator-activated receptor gamma (Homo sapiens, UniProt P37231).
T2 sequence (P37231 whole entry): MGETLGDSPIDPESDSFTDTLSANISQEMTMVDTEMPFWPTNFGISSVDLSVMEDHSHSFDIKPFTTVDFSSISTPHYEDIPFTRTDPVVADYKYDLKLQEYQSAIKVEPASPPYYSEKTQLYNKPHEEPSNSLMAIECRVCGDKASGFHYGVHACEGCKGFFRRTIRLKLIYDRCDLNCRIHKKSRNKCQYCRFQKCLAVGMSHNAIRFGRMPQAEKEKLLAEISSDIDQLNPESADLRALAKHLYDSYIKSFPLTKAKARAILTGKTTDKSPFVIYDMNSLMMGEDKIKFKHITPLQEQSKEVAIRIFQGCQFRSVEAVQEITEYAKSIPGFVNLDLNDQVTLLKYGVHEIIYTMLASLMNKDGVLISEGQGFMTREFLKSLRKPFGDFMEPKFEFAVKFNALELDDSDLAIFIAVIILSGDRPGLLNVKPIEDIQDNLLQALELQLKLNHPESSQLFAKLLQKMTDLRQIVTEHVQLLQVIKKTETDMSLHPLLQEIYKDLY
Description: Antagonist activity at human PPARgamma expressed in 293H cells assessed as reduction in rosiglitazone-induced transcriptional response preincubated for 30 mins followed by rosiglitazone addition and measured after 16 hrs by reporter gene-based FRET assay. In kind it is cell-based.

pEC50, pIC50, pKi: −log10 of the molar value. Calls of active or inactive are those of the source. No cut-off for these calls is given here. Some results are limits rather than exact numbers.

Sequence of 11-beta-hydroxysteroid dehydrogenase 1 (P28845 whole entry C272S): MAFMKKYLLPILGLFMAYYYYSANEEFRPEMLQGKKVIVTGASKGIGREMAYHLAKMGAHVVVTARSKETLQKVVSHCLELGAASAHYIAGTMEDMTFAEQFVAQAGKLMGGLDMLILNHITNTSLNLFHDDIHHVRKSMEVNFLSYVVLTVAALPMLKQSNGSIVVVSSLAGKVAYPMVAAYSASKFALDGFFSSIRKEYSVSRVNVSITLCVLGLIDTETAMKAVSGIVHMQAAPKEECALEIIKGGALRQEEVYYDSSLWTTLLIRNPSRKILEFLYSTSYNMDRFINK

By pIC50 is commonly meant the negative decadic logarithm of the IC50, by convention in mol/L. As usually defined, the pKi is −log10 of the Ki, conventionally taken in molar units. As a reminder, the half-life is the time in which the quantity being followed falls by half. As a reminder, the pEC50 is the negative decadic logarithm of the EC50, by convention in mol/L. As to `CC1=CC[C@@]2([C@H](O)C1)[C@@H](C(=O)O)CC[C@H]2C1CCCCC1`, the pIC50 is 4.57 in [1] and less than 3.30 in data set [2]. The negative-log Ki (pKi) in data set [1] was 5.33. For the same compound, the t1/2 in data set [3] turned out to be 1.29 h; in data set [4] it was 0.3 h. Further, in data set [5], the Stability entry is on record as “Stable”. For the same compound, the half-life is more than 48 h in data set [6] and more than 6 h in data set [7]. The compound further gave a pEC50 in the data set with 3T3-L1 [8] of less than 3.30.

For `CC(=O)O[C@@H]1C[C@@](C)(O)CC[C@]12[C@@H](C(=O)O)CC[C@H]2C(C)C`, in data set [1], the pIC50 was less than 3.30 and the negative logarithm of the Ki (pKi) is 3.54. In data set [2], the negative-log IC50 (pIC50) is less than 3.30. The same compound had a pEC50 with 3T3-L1 [8] of less than 3.30.

`COC(=O)[C@H]1CC[C@@H](C(C)C)[C@@]12CC=C(C)[C@@H](O)C2`: in [1], the pIC50 is less than 3.30 and the negative-log Ki (pKi) is less than 3.30. For the same compound, the pIC50 in [2] is less than 3.30. In addition, in the data set with 3T3-L1 [8], the pEC50 was less than 3.30.

For `CC1=CC[C@@]2(C[C@H]1O)[C@@H](C(C)C)CC[C@H]2C(=O)O`, the negative-log IC50 (pIC50) in data set [1] is 4.10; in data set [2], less than 3.30. Besides, the pEC50 in the data set with 3T3-L1 [8] was less than 3.30.

`CC(=O)O[C@H]1C[C@]2(CC=C1C)[C@@H](C(=O)O)CC[C@H]2C(C)C`: the figures for the pIC50 in data set [1] and in [2] were 3.75 and less than 3.30, respectively. Moreover, in the data set on 3T3-L1 [8], the pEC50 was less than 3.30.

Regarding `C=C1CC[C@]2(C[C@@H]1O)[C@H](C)CC[C@@H]2C(=O)O`, the pIC50 was 3.79 in data set [1] and less than 3.30 in data set [2]. Moreover, the pEC50 in the data set with 3T3-L1 [8] was less than 3.30.

For `C=C1CC[C@@]2(C(OC)[C@@H]1O)[C@@H](C(=O)O)CC[C@H]2C(C)C` (stereo not given in full), in data set [1], the pIC50 is less than 3.30 and the pKi was 3.84. The negative-log IC50 (pIC50) in data set [2] is less than 3.30. In the data set with 3T3-L1 [8], this compound showed a pEC50 of less than 3.30.

In the case of `C=C1CC[C@@]2(C[C@@H]1O)[C@@H](C(=O)O)CC[C@H]2C(C)C`, the pIC50 in data set [1] is 4.42; in data set [2], less than 3.30. The pEC50 in the data set on 3T3-L1 [8] is less than 3.30.

As for `CC1=CC[C@@]2(C=C1)[C@@H](C(=O)O)CC[C@H]2C1CCCCC1`, the pIC50 in data set [1] was 5.66; in data set [2], less than 3.30. The values for the t1/2 in data set [3] and in data set [4] were 0.93 h and 0.27 h, respectively. Besides, the inhibition entry in the data set with 3T3-L1 [9] was “Active”. Further, in [5], the Stability entry is on record as “Stable”. The half-life in data set [6] was more than 48 h; in data set [7] it was more than 6 h. For the same compound, the pEC50 with 3T3-L1 [8] was less than 3.52.

Consider `CC(C)[C@@H]1CC[C@H](C(=O)O)[C@]12C[C@@H](O)[C@@](C)(O)[C@@H](O)C2`, for which, in [1], the negative logarithm of the IC50 (pIC50) was less than 3.30 and the pKi was 3.89. The pIC50 in data set [2] is less than 3.30. This compound gave a negative-log EC50 (pEC50) in the data set with 3T3-L1 [8] of less than 3.30.

Consider `O=C(Nc1ccccc1)c1cc([N+](=O)[O-])ccc1Cl`, for which the negative-log EC50 (pEC50) in [10] was 8.70.

For `CC1=CC[C@@]2(CC1=O)[C@@H](C(=O)O)CC[C@H]2C(C)C`, the negative logarithm of the IC50 (pIC50) in [1] was 4.37; in data set [2] it was less than 3.30. Also, the negative logarithm of the Ki (pKi) in data set [1] is 5.29. The t1/2 in [3] came to 6.8 h; in data set [4], 2.23 h. Also, the Stability entry in data set [5] is reported as “Stable”. The half-life in data set [6] is more than 48 h; in data set [7], more than 6 h. In the data set on 3T3-L1 [8], this compound had a pEC50 of less than 3.30.

Turning to `CC1=CC[C@@]2(C[C@@H]1O)[C@@H](C(N)=O)CC[C@H]2C(C)C`, in [1], the negative-log IC50 (pIC50) was less than 3.30 and the negative logarithm of the Ki (pKi) is less than 3.30. Also, the pIC50 in [2] was less than 3.30. For the same compound, the pEC50 in the data set on 3T3-L1 [8] is less than 3.30.

With `CC1=CC[C@@]2(C[C@@H]1O)[C@H](C(=O)O)CC[C@H]2C(C)C`, the pIC50 in data set [1] and in data set [2] was less than 3.30 throughout. Besides, the pEC50 with 3T3-L1 [8] was less than 3.30.

With `CC1(C)[C@@H](OC(=O)CCC(=O)O)CC[C@]2(C)[C@H]3C(=O)C=C4[C@@H]5C[C@@](C)(C(=O)O)CC[C@]5(C)CC[C@@]4(C)[C@]3(C)CC[C@@H]12` [CARBENOXOLONE], the pEC50 in the data set on 3T3-L1 [8] was less than 3.30.

As for `C=C1CC[C@@]2(C[C@@H]1OC(C)=O)[C@@H](C(=O)O)CC[C@H]2C(C)C`, the negative logarithm of the IC50 (pIC50) in data set [1] is 4.15; in [2] it was less than 3.30. The pEC50 in the data set with 3T3-L1 [8] is less than 3.30.

`CC1=CC[C@@]2([C@H](O)C1)[C@@H](C(=O)O)CC[C@H]2C(C)C`: in data set [1], the pIC50 is 4.26 and the negative-log Ki (pKi) is 5.08. Further, the pIC50 in data set [2] was less than 3.30. Besides, the pEC50 in the data set on 3T3-L1 [8] was less than 3.30.

Take `C[C@]1(O)CC[C@@]2(C[C@@H]1O)[C@@H](C(=O)O)CC[C@H]2C1CCCCC1`: the figures for the negative logarithm of the IC50 (pIC50) in [1] and in data set [2] were 3.42 and less than 3.30, respectively. The pKi in [1] is 4.24. Moreover, the negative-log EC50 (pEC50) in the data set on 3T3-L1 [8] was less than 3.30.

In the case of `CC1=CC[C@@]2(C[C@@H]1O)[C@@H](C(=O)O)CC[C@H]2C1CCCCC1`, the results for the negative-log IC50 (pIC50) in data set [1] and in data set [2] were 5.87 and less than 3.30, respectively. In addition, in [1], the negative logarithm of the Ki (pKi) is 6.68. Besides, the t1/2 in data set [3] was 0.3 h; in [4] it was 0.13 h. Further, the inhibition result with 3T3-L1 [9] was “Active”. Besides, in data set [5], the Stability result is listed as “Stable”. The half-life in data set [6] was more than 48 h; in data set [7] it was more than 6 h. Moreover, the negative-log EC50 (pEC50) in the data set on 3T3-L1 [8] is less than 3.30.
